According to patent US20060235225A1, “Crystals of 5-[2-amino-4-(2-furyl) pyrimidin-5-yl]-1-methylpyridin-2(1H)-one and processes for preparing the same” (Eisai Co., Ltd., priority 2005, published 2006):

What was measured:
[1] = Variable-temperature powder X-ray diffraction and DSC (change of crystal form on heating); format: physicochemical
Experimental: The measuring conditions were the same as for the powder X-ray diffraction pattern measurement described above, except for the measuring temperature.
DSC analysis was conducted under the following conditions, using approximately 3 mg each of the crystals obtained in Example 1 and Comparative Example 2 (the crystal form A and the crystal form B). The DSC patterns of the respective crystals are shown in FIG. 6 and FIG. 7 (magnification of 40-230° C.), and the endothermic peaks and exothermic peaks are shown in Table 2. • Measuring apparatus: DSC822^e by Mettler Toledo • Sample pan material: aluminum • Nitrogen gas flow (40 mL/min) • Start temperature: 25° C. • End temperature: 260° C.
Temperature elevating rate: 5° C./min

[2] = Stability against light (impurity content by HPLC after storage); format: physicochemical
Experimental: The respective crystals obtained in Example 1 and Comparative Example 2 (the crystal form A and the crystal form B) were stored for 1, 3 and 6 months under conditions of 25° C./1000 Lx (apparatus for light stability test; Nagano Science Co. Ltd) and 25° C./dark (control), and impurity contents were measured by HPLC method to investigate stability against exposure to light for the respective crystals. The conditions for HPLC method are shown below.
(Calculation Method of Impurity Content)
Individual impurity content (%)=(Peak area of individual impurity)/(total of all peak areas)×100
Peaks with impurity contents of 0.05% or greater were recorded as impurity peaks, and their total was recorded as the impurity content of the crystals. Impurity content (%)=Total of individual impurity contents (%)

Compound	Temperature of transformation to another crystal form (B′) ([1]; heating 30° C. to 260° C.)	Temperature of transformation to the crystal form A ([1]; heating 30° C. to 260° C.)	Impurity content ([2]; 25° C./1000Lx, storage period 1 month, listed as B) [%]	Impurity content ([2]; 25° C./1000Lx, storage period 3 months, listed as B) [%]	Impurity content ([2]; 25° C./1000Lx, storage period 6 months, listed as B) [%]	Impurity content ([2]; 25° C./dark (control), storage period 1 month, listed as B) [%]	Impurity content ([2]; 25° C./dark (control), storage period 3 months, listed as B) [%]	Impurity content ([2]; 25° C./dark (control), storage period 6 months, listed as B) [%]	Impurity content ([2]; Initial, before storage, HPLC, listed as B) [%]	Change in crystal form by heating ([1]; sample temperature 30° C. to 260° C.)	Impurity content ([2]; 25° C./1000Lx, storage period 1 month, listed as A) [%]	Impurity content ([2]; 25° C./1000Lx, storage period 3 months, listed as A) [%]	Impurity content ([2]; 25° C./1000Lx, storage period 6 months, listed as A) [%]	Stability against exposure to light (comparison of crystal forms) ([2]; 25° C./1000 Lx, up to 6 months)	Impurity content ([2]; 25° C./dark (control), storage period 1 month, listed as A) [%]	Impurity content ([2]; 25° C./dark (control), storage period 3 months, listed as A) [%]	Impurity content ([2]; 25° C./dark (control), storage period 6 months, listed as A) [%]	Impurity content ([2]; Initial, before storage, HPLC, listed as A) [%]
Cn1cc(-c2cnc(N)nc2-c2ccco2)ccc1=O [Crystal form B, 5-[2-amino-4-(2-furyl)pyrimidin-5-yl]-1-methylpyridin-2(1H)-one]	about 90 °C	about 170 °C	0.48	0.52	0.81	0.28	0.25	0.23	0.34									
Cn1cc(-c2cnc(N)nc2-c2ccco2)ccc1=O [Crystal form A, 5-[2-amino-4-(2-furyl)pyrimidin-5-yl]-1-methylpyridin-2(1H)-one]										undergoes no change in crystal form by heating	0.10	0.07	0.08	more stable against exposure to light than the crystal form B	0.14	0.12	0.12	0.06
